Assay results reported in patent US11292785B2, “Nitrogen-containing benzoheterocycle compound comprising carboxylic acid group, preparation method and use thereof” (Sichuan Kelun-Biotech Biopharmaceutical Co., Ltd., priority 2018, dated 2022).
Like-named read-outs stand apart in the source and are kept apart here.

Key:
CYP 3A4M = molecular target: T1, CYP 3A4M (Homo sapiens, UniProt P08684); assay: CYP 3A4M inhibition test in human liver microsomes (probe midazolam); assay type: in vitro ADME; details: probe substrate midazolam, read-out: CYP 3A4M (μM), half inhibition concentration (IC50)
T1 construct: from tissue; host or cells: human liver microsomes
T1 sequence (P08684 whole entry): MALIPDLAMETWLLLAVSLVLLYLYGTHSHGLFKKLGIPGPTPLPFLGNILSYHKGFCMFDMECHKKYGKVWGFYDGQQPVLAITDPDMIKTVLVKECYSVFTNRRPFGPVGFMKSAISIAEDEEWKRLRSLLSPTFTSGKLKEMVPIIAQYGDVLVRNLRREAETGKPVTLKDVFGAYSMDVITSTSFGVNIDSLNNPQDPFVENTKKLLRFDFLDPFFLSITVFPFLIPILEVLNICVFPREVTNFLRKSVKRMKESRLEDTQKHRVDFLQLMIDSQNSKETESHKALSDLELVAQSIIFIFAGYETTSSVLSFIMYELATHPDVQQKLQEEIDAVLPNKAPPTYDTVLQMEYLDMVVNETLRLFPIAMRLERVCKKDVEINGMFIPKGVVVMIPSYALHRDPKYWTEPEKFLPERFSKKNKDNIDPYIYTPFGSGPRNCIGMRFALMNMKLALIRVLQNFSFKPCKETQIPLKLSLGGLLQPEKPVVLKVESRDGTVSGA
Experimental: Probe substrate: Midazolam, National Institute of Control of Pharmaceutical & Biological Products, 171265.
Positive control: Ketoconazole, purchased from Dingdang Chemical, DTYC 0516-17.
(§1) A probe substrate (50 μl), PBS (49 μl) and a test compound in different concentrations (0.05 μM, 0.15 μM, 0.5 μM, 1.5 μM, 5 μM, 15 μM, 50 μM) or a positive control (1 μl) were mixed with human liver microsomes (HLM, 50 μl) to give 150 μl of a mixed liquid, which was subjected to pre-incubation (37° C.) for 5 min, then added with NADPH (50 μl) and incubated for 30 min. The reaction was quenched by adding 200 μl of glacial acetonitrile. An appropriate volume of an internal standard substance was added, and after vortex treatment and centrifugation, the supernatant was obtained.
(§2) The detection was performed by using LC-MS/MS. The mass spectrometer was API 5500, the liquid chromatograph was Waters ACQUITY UPLC I-CLASS system. The chromatographic column was Hypersil GOLD C18, 1.9 μm particle size, 50×2.1 mm; mobile phase A: water+0.1% formic acid, mobile phase B: acetonitrile; flow rate: 0.4 ml/min, column temperature: 40° C. The ion source as used was ESI source positive ion mode, and the scanning mode was Multiple Reaction Monitoring (MRM).
(§3) By using solvent group (DMSO) as negative control, the concentrations of the main metabolite converted from the probe substrate in the case of different concentrations of the test compound were measured, to determine the half inhibition concentration of the compound (IC50).

CYP 3A4T = molecular target: T2, CYP 3A4T (Homo sapiens, UniProt P08684); assay: CYP 3A4T inhibition test in human liver microsomes (probe testosterone); assay type: in vitro ADME; details: probe substrate testosterone, read-out: CYP 3A4T (μM), half inhibition concentration (IC50)
T2 construct: from tissue; host or cells: human liver microsomes
T2 sequence (P08684 whole entry): as above
Experimental: Probe substrate: Testosterone, European Pharmacopoeia (EP) Reference Standard, Sigma-Aldrich, T0100000.
Positive control: Ketoconazole, Dingdang Chemical, DTYC 0516-17.
as §1, §2, §3

[1] = Rat pharmacokinetic (PK) studies, plasma and liver; assay type: in vivo; details: male SD rats, p.o. 5 mg/kg; for AUC(0-t) / Cmax / bioavailability / half-life / Kp: rat, po; for Kp: male, SD, liver relative to plasma, 5 mg/kg
Experimental: The test compound was administered intragastrically (p.o.) to male SD rats at a dose of 5 mg/kg. The solvent system was 0.5% MC during the p.o. administration. After p.o. administration, blood was collected for PK studies at 5 min, 15 min, 30 min, 1 h, 2 h, 4 h, 6 h, 8 h, and 24 h. After p.o. administration, liver tissues were collected at 15 min, 1 h, 4 h, 8 h and 24 h, and the liver tissue sample, after being subjected to protein precipitation treatment, was analyzed by a LC-MS/MS. The mass spectrometer was API 5500, and the liquid chromatograph was Waters ACQUITY I CLASS system: chromatographic column: Agela ASB C18 column (2.1 mm×50 mm, 1.9 μm); mobile phase A: water+0.1% formic acid, mobile phase B: acetonitrile; flow rate: 0.4 mL/min, column temperature: 40° C. The ion source as used was ESI source positive ion mode, and the scanning mode was Multiple Reaction Monitoring (MRM).

CCR2 = molecular target: T3, CCR2 (Homo sapiens, UniProt P41597); assay: Inhibition test on activity of CCR2 in cells (calcium fluorescence, MCP1 stimulation); assay type: cell-based; details: HEK293 cells stably expressing CCR2, ligand MCP1
T3 construct: host or cells: HEK293
T3 sequence (P41597 whole entry): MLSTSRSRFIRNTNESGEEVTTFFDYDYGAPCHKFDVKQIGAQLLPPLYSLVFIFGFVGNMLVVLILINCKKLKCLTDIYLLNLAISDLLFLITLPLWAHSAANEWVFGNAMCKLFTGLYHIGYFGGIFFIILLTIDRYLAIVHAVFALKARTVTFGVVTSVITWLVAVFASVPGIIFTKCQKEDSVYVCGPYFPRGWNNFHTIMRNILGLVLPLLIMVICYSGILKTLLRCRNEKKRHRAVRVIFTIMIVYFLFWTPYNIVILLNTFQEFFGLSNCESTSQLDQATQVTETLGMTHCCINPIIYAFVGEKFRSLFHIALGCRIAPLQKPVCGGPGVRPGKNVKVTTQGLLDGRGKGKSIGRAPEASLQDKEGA
From the text: (§4) HEK293 cells that stably express CCR2 and CCR5 receptor proteins were first labeled with calcium ion sensitive fluorescent probe and then stimulated with corresponding ligands (MCP1 and RANTES). After the stimulation, the receptors were activated to trigger the release of the calcium ions from endoplasmic reticulum to cytoplasm. And once the calcium ions were captured by the fluorescent probe, the fluorescent signal could be triggered. The inhibition of compounds on CCR2 and CCR5 can be evaluated by detecting the intensity of the fluorescent signal.
(§5) To each well of the 384-well plates, 2×10^4 HEK293 cells were added and cultured overnight. After being labelled by fluorescent probe, MCP1 and RANTES in different concentrations were added, and the fluorescent signal was read. The fluorescence signal was plotted in relation to the ligand concentration, and according to the four-parameter model, IC50 values were calculated as the ligand concentrations of the CCR2 and CCR5 for the subsequent detection of the compounds.
(§6) By referring to the above results, cells were incubated with the test compound in different concentrations (5000 nM, 1250 nM, 313 nM, 78 nM, 20 nM, 4.8828 nM, 1.2207 nM, 0.3052 nM, 0.0763 nM, and 0.0191 nM), and after MCP1 and RANTES were added thereto, the fluorescent signal was read. The inhibition activity of each concentration group was calculated, wherein the solvent group (not containing the compound) was as the negative control, and the Buffer group (not containing any ligand) was as the blank control: Relative inhibition activity percentage=1−(fluorescent signal of each concentration group-fluorescent signal of the blank group)/(fluorescent signal of the solvent group-fluorescent signal of the blank group)*100%.
(§7) The inhibition activity percentage of each concentration group was plotted in relation to the concentration of the compound, and the curve was fitted according to the four-parameter model, IC50 values were calculated: y=min+(max−min)/(1+(x/IC50)^(−Hillslope))
(§8) wherein y is the relative inhibition activity percentage; max, min are the maximum and minimum values of the fitted curve, respectively; x is the concentration of the compound, and Hillslope is the slope of the curve.

CCR5 = molecular target: T4, CCR5 (Homo sapiens, UniProt P51681); assay: Inhibition test on activity of CCR5 in cells (calcium fluorescence, RANTES stimulation); assay type: cell-based; details: HEK293 cells stably expressing CCR5, ligand RANTES
T4 construct: host or cells: HEK293
T4 sequence (P51681 whole entry): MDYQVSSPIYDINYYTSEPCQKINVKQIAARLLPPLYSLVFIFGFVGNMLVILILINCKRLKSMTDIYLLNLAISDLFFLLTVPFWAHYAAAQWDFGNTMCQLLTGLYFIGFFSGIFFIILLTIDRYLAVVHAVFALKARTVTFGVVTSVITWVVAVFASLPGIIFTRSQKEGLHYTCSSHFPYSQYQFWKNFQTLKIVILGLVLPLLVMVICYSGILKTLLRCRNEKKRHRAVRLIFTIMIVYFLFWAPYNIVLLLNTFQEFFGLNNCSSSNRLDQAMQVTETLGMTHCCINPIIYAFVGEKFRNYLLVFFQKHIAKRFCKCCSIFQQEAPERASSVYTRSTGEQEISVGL
From the text: as §4, §5, §6, §7, §8

CYP 1A2 = molecular target: T5, CYP 1A2 (Homo sapiens, UniProt P05177); assay: CYP 1A2 inhibition test in human liver microsomes (probe phenacetin); assay type: in vitro ADME; details: probe substrate phenacetin, read-out: CYP 1A2 (μM), half inhibition concentration (IC50)
T5 construct: from tissue; host or cells: human liver microsomes
T5 sequence (P05177 1-516): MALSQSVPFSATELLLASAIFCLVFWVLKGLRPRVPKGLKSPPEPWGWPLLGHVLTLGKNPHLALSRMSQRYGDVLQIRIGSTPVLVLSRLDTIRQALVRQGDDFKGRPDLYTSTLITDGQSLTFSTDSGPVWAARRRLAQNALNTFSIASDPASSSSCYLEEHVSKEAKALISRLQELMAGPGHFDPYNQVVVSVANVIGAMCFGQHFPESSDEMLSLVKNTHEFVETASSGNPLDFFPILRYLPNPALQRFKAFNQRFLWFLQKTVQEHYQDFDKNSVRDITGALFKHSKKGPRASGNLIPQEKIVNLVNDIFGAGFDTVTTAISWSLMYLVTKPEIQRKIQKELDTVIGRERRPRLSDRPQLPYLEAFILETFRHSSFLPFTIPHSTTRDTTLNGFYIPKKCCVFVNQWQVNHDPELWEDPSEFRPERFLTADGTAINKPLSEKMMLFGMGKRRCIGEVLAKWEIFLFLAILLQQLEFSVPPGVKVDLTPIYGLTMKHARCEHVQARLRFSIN
Experimental: Probe substrate: Phenacetin, National Institute of Control of Pharmaceutical & Biological Products, 100095.
Positive control: alpha-naphthoflavane, ACras, A0331533.
as §1, §2, §3

CYP 2D6 = molecular target: T6, CYP 2D6 (Homo sapiens, UniProt P10635); assay: CYP 2D6 inhibition test in human liver microsomes (probe dextromethorphan); assay type: in vitro ADME; details: probe substrate dextromethorphan, read-out: CYP 2D6 (μM), half inhibition concentration (IC50)
T6 construct: from tissue; host or cells: human liver microsomes
T6 sequence (P10635 whole entry): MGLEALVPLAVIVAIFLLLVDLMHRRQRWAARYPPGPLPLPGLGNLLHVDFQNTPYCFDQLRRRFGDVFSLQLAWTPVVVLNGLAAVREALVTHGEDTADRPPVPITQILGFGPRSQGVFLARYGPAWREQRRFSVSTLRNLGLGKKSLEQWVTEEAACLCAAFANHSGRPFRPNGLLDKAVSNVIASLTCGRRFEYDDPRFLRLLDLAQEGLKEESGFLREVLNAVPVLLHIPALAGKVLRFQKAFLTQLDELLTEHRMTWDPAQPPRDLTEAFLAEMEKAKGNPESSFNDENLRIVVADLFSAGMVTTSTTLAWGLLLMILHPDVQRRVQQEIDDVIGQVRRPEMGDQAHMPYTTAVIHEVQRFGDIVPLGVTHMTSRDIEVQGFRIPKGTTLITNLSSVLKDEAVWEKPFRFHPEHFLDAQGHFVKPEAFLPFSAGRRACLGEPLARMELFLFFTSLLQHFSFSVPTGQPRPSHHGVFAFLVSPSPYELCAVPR
Experimental: Probe substrate: Dextromethorpha, Beijing Jinbao, 100201.
Positive control: Quinidine, Damas-bata, P1176507.
as §1, §2, §3

[2] = molecular target: T7, hERG potassium ion channels (Homo sapiens, UniProt Q12809); assay: hERG inhibition test, manual patch clamp, HEK293 cells over-expressing hERG; assay type: cell-based; details: tested at 1 μM and 10 μM
T7 construct: expressed in transfected cells; host or cells: HEK293
T7 sequence (Q12809 whole entry): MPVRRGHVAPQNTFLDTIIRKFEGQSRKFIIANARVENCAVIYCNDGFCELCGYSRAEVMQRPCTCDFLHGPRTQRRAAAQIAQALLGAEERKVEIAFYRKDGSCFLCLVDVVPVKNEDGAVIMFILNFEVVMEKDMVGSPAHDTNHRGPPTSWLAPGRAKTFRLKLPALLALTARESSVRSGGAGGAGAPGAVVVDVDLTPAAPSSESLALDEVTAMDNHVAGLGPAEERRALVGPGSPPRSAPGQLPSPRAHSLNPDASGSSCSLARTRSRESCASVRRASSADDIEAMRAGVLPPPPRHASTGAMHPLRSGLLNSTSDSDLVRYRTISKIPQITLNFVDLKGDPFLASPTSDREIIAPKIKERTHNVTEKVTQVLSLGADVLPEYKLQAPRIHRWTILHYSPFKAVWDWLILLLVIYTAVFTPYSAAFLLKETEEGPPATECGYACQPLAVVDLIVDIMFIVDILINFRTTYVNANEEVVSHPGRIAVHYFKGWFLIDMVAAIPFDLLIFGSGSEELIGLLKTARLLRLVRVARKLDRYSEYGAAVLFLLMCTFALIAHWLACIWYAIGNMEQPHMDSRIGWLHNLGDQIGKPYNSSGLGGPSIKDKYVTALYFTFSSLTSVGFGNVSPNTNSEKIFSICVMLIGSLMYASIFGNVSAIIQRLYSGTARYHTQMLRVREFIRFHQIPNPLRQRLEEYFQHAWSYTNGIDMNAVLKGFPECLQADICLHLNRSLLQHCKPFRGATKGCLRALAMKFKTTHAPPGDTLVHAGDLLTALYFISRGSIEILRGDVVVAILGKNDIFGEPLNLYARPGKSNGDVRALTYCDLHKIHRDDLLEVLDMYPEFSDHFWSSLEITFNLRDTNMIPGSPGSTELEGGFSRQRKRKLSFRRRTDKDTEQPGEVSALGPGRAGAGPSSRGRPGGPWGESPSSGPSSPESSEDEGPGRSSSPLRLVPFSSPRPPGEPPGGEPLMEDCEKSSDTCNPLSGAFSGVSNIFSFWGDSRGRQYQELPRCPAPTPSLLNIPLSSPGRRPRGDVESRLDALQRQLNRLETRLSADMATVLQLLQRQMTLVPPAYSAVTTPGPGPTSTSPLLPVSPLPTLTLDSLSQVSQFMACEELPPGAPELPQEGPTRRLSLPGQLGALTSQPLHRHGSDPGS
Experimental: Different concentrations (1 μM and 10 μM) of the test compound and 30 μM positive control Quinidine were formulated. HEK293 cells over-expressing hERG potassium ion channels were cultured in 5% CO2 incubator at 37° C. When the density of the cells reaches 80% of the Petri dish, the cells was washed with phosphate buffer solution (PBS), followed by digestion with Trypsin/EDTA for 2-3 minutes. The digestion was terminated by adding cell culture medium, then the solution was transferred and centrifuged to remove the supernatant, and added with cell culture medium (DMEM, 15% fetal bovine serum and 1% 100×Penicillin-Streptomycin). After uniformly mixing, the cells were dripped onto a circular slide and cultured in a Petri dish to obtain the test cells.
Channel current was recorded by applying electrophysiological manual patch clamp in a whole-cell recording mode: extracellular fluid was perfused until the current was stable, after the peak value of the tail current (control current value) was recorded, the extracellular fluid containing different concentrations of the test compound was perfused, continuously recording was conducted until the inhibition effect of the medicine on the hERG current reach stable, and the peak value of the tail current (current value after drug administration) was recorded.

| IC50 (CYP 3A4M) [µM] | IC50 (CYP 3A4T) [µM] | AUClast ([1]; liver) [ng·h/g] | AUC(0-t) ([1]; blood plasma) [µg·h/mL] | Cmax ([1]; blood plasma) [µg/mL] | bioavailability ([1]; blood plasma) [%] | half-life ([1]; blood plasma) [h] | Cmax ([1]; liver) [ng/g] | half-life ([1]; liver) [h] | Kp ([1]; AUClast liver vs plasma, read-out: exposure in the liver relative to that in the plasma) | Kp ([1]; Cmax liver vs plasma, read-out: drug concentration in the liver relative to that in the plasma) | Structure (SMILES) | IC50 (CCR2) [nM] | IC50 (CCR5) [nM] | IC50 (CYP 1A2) [µM] | IC50 (CYP 2D6) [µM] | IC50 [2] [µM] |
| --- | --- | --- | --- | --- | --- | --- | --- | --- | --- | --- | --- | --- | --- | --- | --- | --- |
| 3.43 | 12.7 | 6033 ± 2193 | 6.33 ± 3.44 | 0.746 ± 0.428 | 10.8 ± 3.5 | 4.33 ± 0.87 | 688 ± 229 | 3.93 ± 1.88 |  |  | CCCCOCCOc1ccc(-c2ccc3c(c2)/C=C(/C(=O)Nc2ccc([S@@+]([O-])Cc4cncn4CCC)cc2)CCCN3CC(C)C)cc1 [Cenicriviroc, reference compound] |  |  |  |  |  |
|  |  |  |  |  |  |  |  |  |  |  | CCCCOCCOc1ccc(-c2ccc3c(c2)/C=C(/C(=O)Nc2ccc([S@@+]([O-])Cc4cncn4CCC)cc2)CCCN3CC(C)(C)C(=O)O)cc1 [Compound 1, (S,E)-3-(8-(4-(2-butoxyethoxy)phenyl)-5-((4-(((1-propyl-1H-imidazol-5-yl)methyl)sulfinyl)phenyl)carbamoyl)-3,4-dihydrobenzo[b]azacyclooctatetraen-1(2H)-yl)-2,2-dimethylpropanoic acid] | 0.74 | 0.33 | > 10 | > 10 |  |
| 15.3 | 48.3 |  |  |  |  |  |  |  |  |  | CCCCOCCOc1ccc(-c2ccc3c(c2)/C=C(/C(=O)Nc2ccc([S@+]([O-])Cc4c(C)ncn4CCC)cc2)CCCN3CC(C)(C)C(=O)O)cc1 [Compound 4] | 6.12 | 2.82 | > 10 | > 10 | > 10 |
| 13.3 | 32.3 | 386938 ± 30242 | 0.165 ± 0.036 | 0.0497 ± 0.0106 | 20.9 ± 4.5 | 1.93 ± 0.37 | 26600 ± 200 | 7.2 ± 0.5 | ~2340 | ~530 | CCCCOCCOc1ccc(-c2ccc3c(c2)/C=C(/C(=O)Nc2ccc([S@@+]([O-])Cc4c(C)ncn4CCC)cc2)CCCN3CC(C)(C)C(=O)O)cc1 [Compound 3] | 0.81 | 1.48 | > 10 | > 10 | > 10 |

| Structure (SMILES) | IC50 (CYP 3A4M) [µM] | IC50 (CYP 3A4T) [µM] | AUClast ([1]; liver) [ng·h/g] | AUC(0-t) ([1]; blood plasma) [µg·h/mL] | Cmax ([1]; blood plasma) [µg/mL] | bioavailability ([1]; blood plasma) [%] | half-life ([1]; blood plasma) [h] | Cmax ([1]; liver) [ng/g] | half-life ([1]; liver) [h] | Kp ([1]; AUClast liver vs plasma, read-out: exposure in the liver relative to that in the plasma) | Kp ([1]; Cmax liver vs plasma, read-out: drug concentration in the liver relative to that in the plasma) | IC50 (CCR2) [nM] | IC50 (CCR5) [nM] | IC50 (CYP 1A2) [µM] | IC50 (CYP 2D6) [µM] | IC50 [2] [µM] |
| --- | --- | --- | --- | --- | --- | --- | --- | --- | --- | --- | --- | --- | --- | --- | --- | --- |
| CCCCOCCOc1ccc(-c2ccc3c(c2)/C=C(/C(=O)Nc2ccc([S+]([O-])Cc4c(C)ncn4CCC)cc2)CCCN3CC(C)(C)C(=O)O)cc1 (stereo not shown) [Compound 2, (E)-3-(8-(4-(2-butoxyethoxy)phenyl)-5-((4-(((4-methyl-1-propyl-1H-imidazol-5-yl)methyl)sulfinyl)phenyl)carbamoyl)-3,4-dihydrobenzo[b]azacyclooctatetraen-1(2H)-yl)-2,2-dimethylpropanoic acid] | 27.8 | 62.2 |  |  |  |  |  |  |  |  |  | 6.38 | 3.18 | > 10 | > 10 | > 10 |
